Measured values: US9827229B2, “Small molecule securinine and norsecurinine analogs and their use in cancers, inflammatory diseases and infections” (INVENIO THERAPEUTICS INC., priority 2013, dated 2017)
Read-outs that look alike come from different tables or passages of the source.

How the values were obtained:
HL60 cells [1] = assay: Growth of HL60 cells (IC50); format: cell-based, human; parameters: HL-60, Dif50/IC50 column: second value of 'x/y at 1.25 uM' (growth): unit not given here; conditions: for IC50: growth, read-out: HL-60, IC50
Experimental: (§1) The analogs were then tested and evaluated on the ability to affect differentiation and growth of HL60 cells.

HL60 cells [2] = assay: Differentiation of HL60 cells (Dif50); format: cell-based, human
Source text: The tested compounds and their respective results are produced in Table 1. Those skilled in the art will appreciate that combining the securinine and/or norsecurinine analogs with other differentiation inducing agents, such as all-trans retinoic acid, cytarabine and/or an anthracycline, would be of further benefit. Those skilled in the art will appreciate that inducing differentiation may further reduce oxidative damage due to lower presence of radical inducing enzymes (see, e.g., Yamada et al. J Biol Chem 259(5)3021-3025 (1984) and Weil et al., PNAS 84:2057-2061 (1987)).
as §1

HCT116 P53+/+ = assay: Growth inhibition of colon cancer HCT116 P53+/+; format: cell-based
Source text: (§2) The analogs were then further tested for inhibiting growth against various cancer cell lines: AML (Mol3, OCI), Colon cancer (HCT116) and Ovary cancer (SKOV3). IC50 are documented in Table 2.

HCT116 P53−/− = assay: Growth inhibition of colon cancer HCT116 P53−/−; format: cell-based
Source text: as §2

MOL3 = assay: Growth inhibition of AML cell line MOL3; format: cell-based, human
Source text: as §2

SKOV3 P53−/− = assay: Growth inhibition of ovary cancer SKOV3 P53−/−; format: cell-based
Source text: as §2

SKOV3 P53+/+ = assay: Growth inhibition of ovary cancer SKOV3 P53+/+; format: cell-based
Source text: as §2

OCI = assay: Growth inhibition of AML cell line OCI; format: cell-based, human
Source text: as §2

mice = assay: Seizures in mice; format: in vivo; conditions: due to GABA receptor binding
Source text: The present invention provides for methods of treating a condition as described herein with less adverse additional effects. As is known in the art, securinine antagonizes the GABAA receptor.

[3] = Homo sapiens, HCT-116, colon cancer HCT116 P53+/+
[4] = Homo sapiens, HCT-116, colon cancer HCT116 P53−/−
[5] = Homo sapiens, SK-OV-3, ovary cancer SKOV3 P53−/−
[6] = Homo sapiens, SK-OV-3, ovary cancer SKOV3 P53+/+
[7] = Homo sapiens, HL-60, HL-60 cells, differentiation, no unit in head or cell (other cells of the column print uM), read-out: HL-60, Dif50
[8] = Homo sapiens, HL-60, read-out: HL-60, Dif50, HL-60 cells, differentiation, no unit in head or cell (other cells of the column print uM)

Structure (SMILES)	IC50 (HCT116 P53+/+; [3]) [nM]	IC50 (HCT116 P53−/−; [4]) [nM]	IC50 (SKOV3 P53−/−; [5]) [nM]	IC50 (SKOV3 P53+/+; [6]) [nM]	EC50 (HL60 cells [2]; [7]) [µM]	other results
C=CCOCC#CC1=C[C@@H]2C[C@@]3(OC(=O)C=C13)[C@H]1CCCCN21 [INVS-MG-159A]						HL-60, Dif50/IC50 column: second value of 'x/y at 10 uM' (growth) (HL60 cells [1]; HL-60 cells): 20/20 at 10 uM; HL-60, Dif50/IC50 column: first value of 'x/y at 10 uM' (differentiation) (HL60 cells [2]; HL-60 cells): 20/20 at 10 uM
CCCN(CC#CC1=C[C@@H]2C[C@@]3(OC(=O)C=C13)[C@H]1CCCCN21)CCC [INVS-MG-152A]	900	1900	700	< 600		IC50 (MOL3; Homo sapiens): 80 nM; IC50 (OCI; Homo sapiens): 70 nM
O=C1C=C2C(c3cn(Cc4ccccc4)nn3)=C[C@@H]3C[C@@]2(O1)[C@H]1CCCCN31 [INVS-MG-209A]						IC50 (HL60 cells [1]; Homo sapiens, HL-60, HL-60 cells): < 10 µM; EC50 (HL60 cells [2]; Homo sapiens, HL-60, HL-60 cells, differentiation, read-out: HL-60, Dif50): < 10 µM
O=C1C=C2C(C#Cc3ccccc3)=C[C@@H]3C[C@@]2(O1)[C@H]1CCCCN31 [INVS-MG-110B]	1900	2300	3000	2100		IC50 (MOL3; Homo sapiens): 70 nM; IC50 (OCI; Homo sapiens): 80 nM
O=C1C=C2C(C#Cc3cc4ccccc4c4ccccc34)=C[C@@H]3C[C@@]2(O1)[C@H]1CCCCN31 [INVS-MG-158B]	1200	2300	3100	1200		
N#CCCCC#C/C(=C\C1=C[C@@H]2C[C@@]3(OC(=O)C=C13)[C@H]1CCCCN21)CCCC#N [INVS-MG-125-IIB]						HL-60, Dif50/IC50 column: second value of 'x/y at 10 uM' (growth) (HL60 cells [1]; HL-60 cells): 35; HL-60, Dif50/IC50 column: first value of 'x/y at 10 uM' (differentiation) (HL60 cells [2]; HL-60 cells): 40
COc1cccc(C#CC2=C[C@@H]3C[C@@]4(OC(=O)C=C24)[C@H]2CCCCN32)c1 [INVS-MG-165B]	3200	4200	3500	3600		
CN(C)c1ccc(C#CC2=C[C@@H]3C[C@@]4(OC(=O)C=C24)[C@H]2CCCCN32)cc1 [INVS-MG-146B]	800	1800	800	700		
O=C1C=C2C=C[C@@H]3C[C@@]2(O1)[C@H]1CCCCN31 [Securinine]						seizures in mice (mice): causes seizures
N#Cc1ccc(C#CC2=C[C@@H]3C[C@@]4(OC(=O)C=C24)[C@H]2CCCCN32)cc1 [INVS-MG-164B]	5200	6400	4200	6800		
O=C1C=C2C(C#Cc3ccsc3)=C[C@@H]3C[C@@]2(O1)[C@H]1CCCCN31 [INVS-MG-136-III]						IC50 (HCT116 P53+/+; colon cancer HCT116 P53+/+): 1800 nM; IC50 (HCT116 P53−/−; colon cancer HCT116 P53−/−): 2200 nM; IC50 (MOL3): 100 nM; IC50 (SKOV3 P53−/−; ovary cancer SKOV3 P53−/−): 1100 nM; IC50 (SKOV3 P53+/+; ovary cancer SKOV3 P53+/+): 700 nM; IC50 (OCI): 115 nM; IC50 (HL60 cells [1]; HL-60 cells, no unit in head or cell (other cells of the column print uM)): < 0.07 µM
CCN(CC)CC#CC1=C[C@@H]2C[C@@]3(OC(=O)C=C13)[C@H]1CCCCN21 [INVS-MG-145A]	1100	2100	1200	800		
CN(C)CC#CC1=C[C@@H]2C[C@@]3(OC(=O)C=C13)[C@H]1CCCCN21 [INVS-MG-111B]	1100	1500	2800	1800		IC50 (MOL3; Homo sapiens): 70 nM; IC50 (OCI; Homo sapiens): 90 nM
C=C(C)CC#CC1=C[C@@H]2C[C@@]3(OC(=O)C=C13)[C@H]1CCCCN21 [INVS-MG-132A]	2400	2200	3800	2400		IC50 (OCI; Homo sapiens): 200 nM
O=C1C=C2C(C#Cc3ccsc3)=C[C@@H]3C[C@@]2(O1)[C@H]1CCCCN31 [INVS-MG-136B]	2200	2100				IC50 (MOL3; Homo sapiens): 60 nM; IC50 (SKOV3 P53−/−; ovary cancer SKOV3 P53−/−): 2900 nM; IC50 (SKOV3 P53+/+; ovary cancer SKOV3 P53+/+): 2800 nM
O=C1C=C2C(I)=C[C@@H]3C[C@@]2(O1)[C@H]1CCCCN31 [INVS-MG-82-II]	1400	1100	3100	1600		IC50 (MOL3; Homo sapiens): 90 nM; IC50 (OCI; Homo sapiens): 100 nM
O=C1C=C2C(C#Cc3ccc(OC(F)(F)F)cc3)=C[C@@H]3C[C@@]2(O1)[C@H]1CCCCN31 [INVS-MG-166B]	2400	3800	3200	3500		IC50 (MOL3; Homo sapiens): > 300 nM; IC50 (OCI; Homo sapiens): > 300 nM
CCCNC1CC2=CC(=O)O[C@@]23C[C@@H]1N1CCCC[C@@H]13 (some centres unmarked) [INVS-MG-44]					15 to 20	
O=C1C=C2C(C#CC3C=CCCC3)=C[C@@H]3C[C@@]2(O1)[C@H]1CCCCN31 (some centres unmarked) [INVS-MG-160B]						HL-60, Dif50/IC50 column: second value of 'x/y at 1.25 uM' (growth) (HL60 cells [1]; HL-60 cells, at 1.25 uM): 40; HL-60, Dif50/IC50 column: first value of 'x/y at 1.25 uM' (differentiation) (HL60 cells [2]; HL-60 cells, at 1.25 uM): 50
O=C1CC2(SCC(F)(F)F)CC(SCC(F)(F)F)[C@@H]3C[C@@]2(O1)[C@H]1CCCCN31 (some centres unmarked) [INVS-MG-5A]						EC50 (HL60 cells [2]; [8]): 5 to 7.5 µM

Structure (SMILES)	IC50 (HCT116 P53+/+; [3]) [nM]	IC50 (HCT116 P53−/−; [4]) [nM]	IC50 (SKOV3 P53−/−; [5]) [nM]	IC50 (SKOV3 P53+/+; [6]) [nM]	EC50 (HL60 cells [2]; [7]) [µM]	other results
CO[C@H]1CC2=CC(=O)O[C@@]23C[C@@H]1N1CCCC[C@@H]13 [INVS-MG-97-IIB]						EC50 (HL60 cells [2]; [8]): > 30 µM
Oc1ccccc1CSC1CC2=CC(O)O[C@@]23C[C@@H]1N1CCCC[C@@H]13 (some centres unmarked) [Sec-4]					15 to 20	
CCN(CC)CCSC1CC2=CC(=O)O[C@@]23C[C@@H]1N1CCCC[C@@H]13 (some centres unmarked) [INVS-MG-60]					15 to 20	
COC(OC)[C@H]1CCC2N1[C@@H]1C=CC3=CC(=O)O[C@@]32C1 (some centres unmarked) [INVG-Z-27-4 = INVS-MG-52D]						EC50 (HL60 cells [2]; [8]): 3.25 to 5 µM
O=C1C=C2CC(S(=O)Oc3ccccc3)[C@@H]3C[C@@]2(O1)[C@H]1CCCCN31 (some centres unmarked) [Sec-19]					20 to 30	
O=C1C=C2C[C@H](NCCc3cc4ccccc4[nH]3)[C@@H]3C[C@@]2(O1)[C@H]1CCCCN31 [INVS-MG-98B]					10 to 15	
OC1CC2CC[C@@H]3C[C@@]2(O1)[C@H]1CCCCN31 (some centres unmarked) [Sec-16]					20 to 30	
OC1C=C2CC(SC3CCCC3)[C@@H]3C[C@@]2(O1)[C@H]1CCCCN31 (some centres unmarked) [Sec-6]					15 to 20	
COc1ccc2cc(C#CC3=C[C@@H]4C[C@@]5(OC(=O)C=C35)[C@H]3CCCCN43)ccc2c1 [INVS-MG-157B]	700	900	700	< 600		IC50 (MOL3; Homo sapiens): 90 nM; IC50 (HL60 cells [1]; Homo sapiens, HL-60, HL-60 cells, no unit in head or cell (other cells of the column print uM)): 0.07 to 0.156 µM
O=C1C=C2CC(SC3CCCCC3)[C@@H]3C[C@@]2(O1)[C@H]1CCCCN31 (some centres unmarked) [INVS-MG-3B]					15 to 20	
O=C1O[C@]23CC4OC4[C@H](ON4CCCC[C@@H]42)C32OC12 (some centres unmarked) [INVS-MG-77-aq]						EC50 (HL60 cells [2]; read-out: HL-60, Dif50, HL-60 cells, differentiation, no unit in head or cell (other cells of the column print uM)): > 30 µM
N#CCCCC#CC1=C[C@@H]2C[C@@]3(OC(=O)C=C13)[C@H]1CCCCN21 [INVS-MG-125A]	1300	2000	2400	1300		
COc1ccc(C#CC2=C[C@@H]3C[C@@]4(OC(=O)C=C24)[C@H]2CCCCN32)cc1 [INVS-MG-134C]	1000	1100	2800	1200		IC50 (MOL3; Homo sapiens): 60 nM; IC50 (OCI; Homo sapiens): 80 nM
O=C1C=C2C[C@@H](SCC(F)(F)F)[C@@H]3C[C@@]2(O1)[C@H]1CCCCN31 [INVS-MG-5C]					20 to 30	
NC1CC2=CC(=O)O[C@@]23C[C@@H]1N1CCCC[C@@H]13 (some centres unmarked) [INVS-MG-97-IIE]					20 to 30	
CSC1CC2=CC(O)O[C@@]23C[C@@H]1N1CCCC[C@@H]13 (some centres unmarked) [Sec-8]					10 to 15	
O=C1O[C@]23CC4OC4[C@H](ON4CCCC[C@@H]42)C32OC12 (some centres unmarked) [INVS-MG-76-aq]						EC50 (HL60 cells [2]; [8]): > 30 µM
CCOC#CC1=C[C@@H]2C[C@@]3(OC(=O)C=C13)[C@H]1CCCCN21 [INVS-MG-120A]	1600	2100	2600	1900		
CC(C)CS[C@H]1CC2=CC(=O)O[C@@]23C[C@@H]1N1CCCC[C@@H]13 (stereo in doubt) [INVS-MG-55B & 57B = 37B]					15 to 20	
